The values that follow come from ChEMBL document CHEMBL4483862, “Open-source discovery of chemical leads for next-generation chemoprotective antimalarials” (2018).

Molecules are shown by their SMILES.

The subject of this assay is Plasmodium berghei. Kind of assay: Luciferase/luciferin-expressing antifolate-resistant parasites were used to infect a culture of HepG2 cells that were pre-incubated with compounds. Infected hepatocytes emit light due to the luciferase reaction. Assay results are presented as the percent inhibition of light emission compared to control. […]. It is filed as functional. The note with it: sporozoite; for IC90: read-out: LUCIFERASE INFECTION ASSAY - IC90.

Where [1] appears, read: read-out: LUCIFERASE INFECTION ASSAY - IC50.

By IC50 is commonly meant the concentration at which inhibition is half-maximal. By IC90 is commonly meant the point of the concentration-response curve where the effect stands at 90%. Turning to `COC(=O)c1ccc(NC(=O)c2ccc(-c3cccc(Br)c3)nc2C)s1`, the IC90 is above 10 µM. For the setting “PBLUC_HILL_SLOPE 7.52, PBLUC_R_SQUARED 0.673, read-out: LUCIFERASE INFECTION ASSAY - IC50”, the IC50 was found to be 9.09 µM.
As for `CCC(C)(C)c1ccc(Oc2ccc(NC(=O)CN3c4cccc5cccc(c45)S3(=O)=O)cc2)cc1`, the IC90 was above 10 µM. Moreover, under setting [1], the IC50 was above 10 µM.
`CC1CCN(Cc2nc(Oc3cccc4c3OC(C)(C)C4)c3c(-c4ccccc4)csc3n2)CC1`: the IC90 was above 10 µM. Also, the IC50 under setting [1] is above 10 µM.
As for `CC(C)c1ccc2c(ccc[n+]2C)c1`, the IC90 was above 10.5 µM. For the setting “PBLUC_HILL_SLOPE 4.53, PBLUC_R_SQUARED 0.451, read-out: LUCIFERASE INFECTION ASSAY - IC50”, the IC50 amounted to 8.36 µM.
Take `O=C(CSCc1nc(-c2ccc(Cl)cc2)cs1)NNS(=O)(=O)c1ccc(Cl)cc1`: the 90% effect concentration (IC90) was above 6.76 µM. Moreover, where the note is “HEPG2TOX_HILL_SLOPE 8.04, HEPG2TOX_R_SQUARED 0.486, read-out: LUCIFERASE INFECTION ASSAY - IC50”, the IC50 is above 6.76 µM.
`N#C/C(=C(/Oc1ccc(Cl)cc1Cl)C(F)(F)F)c1ccccc1`: the IC90 was above 9.21 µM. Also, under “HEPG2TOX_HILL_SLOPE 9.57, HEPG2TOX_R_SQUARED 0.894, PBLUC_HILL_SLOPE 12.7, PBLUC_R_SQUARED 0.611, read-out: LUCIFERASE INFECTION ASSAY - IC50”, the IC50 was 8.77 µM.
With `CN(CC(=O)Nc1nc(C23CC4CC(CC(C4)C2)C3)cs1)C(=O)c1ccco1`, the IC90 was determined as 4.63 µM. Further, the IC50 (HEPG2TOX_HILL_SLOPE 8.2, HEPG2TOX_R_SQUARED 0.447, PBLUC_HILL_SLOPE 10.5, PBLUC_R_SQUARED 0.337, read-out: LUCIFERASE INFECTION ASSAY - IC50) worked out at 3.76 µM.
`CC(C)CN(C(=O)CN(C)C(=O)c1ccco1)c1c(N)n(CC(C)C)c(=O)[nH]c1=O`: the IC90 is above 10 µM. Besides, under setting [1], the IC50 was above 10 µM.
`O=C(CCC(=O)c1ccc2c(c1)OCCO2)OCn1nnc2ccccc2c1=O`: the IC90 is above 10 µM. In addition, under setting [1], the IC50 was above 10 µM.
For `Cc1ccc2nc(CNc3cc(Cl)ccc3N3CCCC3)cc(=O)n2c1`, the IC90 was above 10 µM. Under setting [1], the IC50 is above 10 µM.
Turning to `Cc1ccc(N2C(=O)/C(=C/c3ccc(C(C)C)cc3)N=C2SCC(=O)C23CC4CC(CC(C4)C2)C3)cc1`, the IC90 is above 10 µM. Further, the IC50 (FFLUC_HILL_SLOPE 28, FFLUC_R_SQUARED 0.571, PBLUC_HILL_SLOPE 16, PBLUC_R_SQUARED 0.0407, read-out: LUCIFERASE INFECTION ASSAY - IC50) worked out at 9.9 µM.
Take `CS(=O)(=O)N1CCc2cc(C(=O)CSc3nc(-c4cccs4)nc4ccccc34)ccc21`: the IC90 is above 10 µM. In addition, the IC50 under setting [1] was above 10 µM.
In the case of `O=S(=O)(c1ccccc1)N1[C@@H]2CC[C@@H](C2)[C@H]1c1nc2c(OCCC3CCCCC3)cccc2[nH]1`, the IC90 is above 10 µM. Under “FFLUC_HILL_SLOPE 8.97, FFLUC_R_SQUARED 0.445, PBLUC_HILL_SLOPE 2.11, PBLUC_R_SQUARED 0.35, read-out: LUCIFERASE INFECTION ASSAY - IC50”, the IC50 was 6.12 µM.
In the case of `O=C(/C=C/c1ccncc1)Nc1ccc(Oc2ccccc2)cc1`, the IC90 turned out to be 6.66 µM. Moreover, the half-inhibitory concentration (IC50) (HEPG2TOX_HILL_SLOPE 9.03, HEPG2TOX_R_SQUARED 0.239, PBLUC_HILL_SLOPE 3.67, PBLUC_R_SQUARED 0.501, read-out: LUCIFERASE INFECTION ASSAY - IC50) was 3.66 µM.
Take `CN1CCN(c2ccc(-c3cn4c(-c5ccc6c(c5)OCO6)cnc4cn3)cn2)CC1`: the IC90 is above 7.96 µM. Further, the IC50 (PBLUC_HILL_SLOPE 2.2, PBLUC_R_SQUARED 0.54, read-out: LUCIFERASE INFECTION ASSAY - IC50) came out at 6.26 µM.
For `Cc1cc(C(=O)Nc2nc3c(C)cccn3c2C(=O)NC2CCCC2)c(C)o1`, the IC90 was above 8.67 µM. Moreover, under setting [1], the IC50 was above 8.67 µM.
On to `CCC(C)(C)C1CCC2(CC1)NC(N)=Nc1nc3ccccc3n12` (stereo unspecified), for which the IC90 was 3.31 µM. Further, the IC50 (PBLUC_HILL_SLOPE 13.4, PBLUC_R_SQUARED 0.322, read-out: LUCIFERASE INFECTION ASSAY - IC50) came out at 2.81 µM.
For `O=C(CO/N=C/c1ccc(OCc2ccccc2)c(OCc2ccccc2)c1)N1CCCCCC1`, the IC90 is above 10 µM. Also, the IC50 (PBLUC_HILL_SLOPE 29.4, PBLUC_R_SQUARED 0.303, read-out: LUCIFERASE INFECTION ASSAY - IC50) was 9.83 µM.
`CCn1nc(C(=O)NCc2ccc(OC)cc2)c2c1CCN(C(=O)c1cc(C)n[nH]1)C2`: the IC90 turned out to be 3.69 µM. The IC50 (PBLUC_HILL_SLOPE 2.57, PBLUC_R_SQUARED 0.68, read-out: LUCIFERASE INFECTION ASSAY - IC50) turned out to be 1.57 µM.
Regarding `CC(=O)c1ccc(-c2ccc(C(=O)N3CCCc4ccccc43)o2)cc1`, the IC90 is 0.942 µM. Besides, the IC50 (PBLUC_HILL_SLOPE 1.77, PBLUC_R_SQUARED 0.773, read-out: LUCIFERASE INFECTION ASSAY - IC50) turned out to be 0.272 µM.
Regarding `COC(=O)c1sc(SCCOC(=O)Nc2ccc(OC(F)(F)F)cc2)c2c1CC(C)(C)CC2=O`, the IC90 was above 6.38 µM. For the same molecule, the IC50 (FFLUC_HILL_SLOPE 7.12, FFLUC_R_SQUARED 0.0522, read-out: LUCIFERASE INFECTION ASSAY - IC50) is above 6.38 µM.
As for `COC(=O)c1c(NC(=O)c2cccnc2)c2cc(NCC(C)C)cnc2n1CC(C)C`, the IC90 is above 7.79 µM. For the same molecule, the IC50 under setting [1] is above 7.79 µM.
For `COc1cc(OC)cc(C(=O)NC(=S)N(Cc2ccccc2)C(C)C)c1`, the IC90 is above 10 µM. Also, the IC50 (PBLUC_HILL_SLOPE 14.1, PBLUC_R_SQUARED 0.0494, read-out: LUCIFERASE INFECTION ASSAY - IC50) stood at 8.89 µM.
As for `Cc1n[nH]c(=S)n1C1CCCCC1`, the IC90 is above 10 µM. The IC50 under setting [1] was above 10 µM.
`FC(F)(F)c1cc(Nc2nc(-c3cc(-c4ccc(Cl)cc4Cl)no3)cs2)cc(C(F)(F)F)c1`: the IC90 is above 6.29 µM. The IC50 under setting [1] is above 6.29 µM.
`CNc1nc2cnc(Nc3cc(C(F)(F)F)ccc3F)cc2n1Cc1ccco1`: the IC90 was above 10 µM. Besides, where the note is “HEPG2TOX_HILL_SLOPE 10.6, HEPG2TOX_R_SQUARED 0.165, read-out: LUCIFERASE INFECTION ASSAY - IC50”, the IC50 is above 10 µM.
As to `CNc1snc(C)c1C(=O)OCc1cc(C(=O)OC)c(C)o1`, the IC90 turned out to be 2.41 µM. The IC50 (HEPG2TOX_HILL_SLOPE 0.962, HEPG2TOX_R_SQUARED 0.934, PBLUC_HILL_SLOPE 25, PBLUC_R_SQUARED 0.565, read-out: LUCIFERASE INFECTION ASSAY - IC50) was 2.2 µM.
As for `COc1ccc(-c2nc(C(=O)NC3CC3)cc3c2[nH]c2ccccc23)cc1`, the IC90 was determined as 7.59 µM. In addition, the IC50 (HEPG2TOX_HILL_SLOPE 1.32, HEPG2TOX_R_SQUARED 0.984, PBLUC_HILL_SLOPE 2.25, PBLUC_R_SQUARED 0.475, read-out: LUCIFERASE INFECTION ASSAY - IC50) was 2.85 µM.
`CN(Cc1ccccc1)C(=O)Nc1cccc2ncccc12`: the IC90 is above 10 µM. Besides, the IC50 under setting [1] was above 10 µM.
Regarding `Cc1sc(NC(=O)c2ccc(Cn3cncn3)cc2)nc1-c1ccc(Br)cc1`, the IC90 was above 10 µM. Besides, for the setting “HEPG2TOX_HILL_SLOPE 2.39, HEPG2TOX_R_SQUARED 0.794, PBLUC_HILL_SLOPE 2.3, PBLUC_R_SQUARED 0.342, read-out: LUCIFERASE INFECTION ASSAY - IC50”, the IC50 was above 10 µM.
Turning to `CCCCCc1ccc(C(=O)Nc2nc3ccc(C)cn3c2C(=O)NCCCC)cc1`, the IC90 is above 7.85 µM. The IC50 (PBLUC_HILL_SLOPE 2.82, PBLUC_R_SQUARED 0.514, read-out: LUCIFERASE INFECTION ASSAY - IC50) was 4.14 µM.
As for `Cc1csc2nc(CNC(c3ccc(C4CCCCC4)cc3)C(C)C)cc(=O)n12` (stereo unspecified), the IC90 was 4.73 µM. Moreover, for the setting “PBLUC_HILL_SLOPE 9.21, PBLUC_R_SQUARED 0.523, read-out: LUCIFERASE INFECTION ASSAY - IC50”, the IC50 came to 3.73 µM.
In the case of `O=C(c1ccccc1)C1CCN(C(=O)/C=C/c2cccc(Cl)c2Cl)CC1`, the IC90 is above 10 µM. For the setting “PBLUC_HILL_SLOPE 1.75, PBLUC_R_SQUARED 0.122, read-out: LUCIFERASE INFECTION ASSAY - IC50”, the IC50 is above 10 µM.
Turning to `CC(C)Cn1c(-c2ccccc2)nc2c(c(=O)c3ccccc3n2C)c1=O`, the IC90 is above 9.18 µM. The IC50 (PBLUC_HILL_SLOPE 2.45, PBLUC_R_SQUARED 0.0531, read-out: LUCIFERASE INFECTION ASSAY - IC50) is 6.49 µM.
For the molecule `CSc1nnnn1-c1cccc(NC(=O)c2cc(-c3cccs3)nc3c2cnn3C(C)C)c1`, the IC90 was above 10 µM. Further, for the setting “PBLUC_HILL_SLOPE 6.42, PBLUC_R_SQUARED 0.137, read-out: LUCIFERASE INFECTION ASSAY - IC50”, the IC50 is above 10 µM.
Take `Oc1cccc(-c2cnc3cnc(/C=C/c4ccccc4)cn23)c1`: the IC90 was above 10.5 µM. Besides, under “PBLUC_HILL_SLOPE 3.41, PBLUC_R_SQUARED 0.351, read-out: LUCIFERASE INFECTION ASSAY - IC50”, the IC50 came out at 7.1 µM.
On to `Cc1ccc(CNC(=O)c2ccc(CN3CCc4ccccc4C3)cc2)cc1`, for which the IC90 is above 8.91 µM. For the setting “PBLUC_HILL_SLOPE 3.55, PBLUC_R_SQUARED 0.838, read-out: LUCIFERASE INFECTION ASSAY - IC50”, the IC50 was 6.04 µM.
As to `c1ccc2cc(C3=NNC(=NC4CC4)SC3)ccc2c1`, the IC90 was found to be 0.0194 µM. The IC50 (FFLUC_HILL_SLOPE 2.37, FFLUC_R_SQUARED 0.781, HEPG2TOX_HILL_SLOPE 1.63, HEPG2TOX_R_SQUARED 0.913, PBLUC_HILL_SLOPE 5.38, PBLUC_R_SQUARED 0.229, read-out: LUCIFERASE INFECTION ASSAY - IC50) is 0.0129 µM.
